# Measurements: PubChem BioAssay AID1919000 (Molecular Pharmacology Branch, DTP, NCI, 2023)
# pIC50: −log10 of the molar value.
# System: 653999-131-R-J2-PDC complex spheroids, growth % test/control
# Test: Anticancer human tumor 653999-131-R-J2-PDC patient-derived lung adenocarcinoma cell line growth inhibition [AhR]
# Conditions: for pIC50: curve of first compound; for viability, T/C: stronger effect = lower value
# Excerpt: Multicellular complex tumor spheroid response to aryl hydrocarbon receptor antagonists in combination with a variety of drugs and investigational agents in selected tumor cell lines
# The current study was undertaken to assess response to aryl hydrocarbon receptor antagonists in combination with standard-of-care drugs and investigational agents in solid tumor complex spheroid models. Complex spheroids include a stromal component modeled by human endothelial cells (HUVEC) and fibroblasts modeled by human mesenchymal stem cells (MSCs). The concentration ranges selected for each drug and investigational agent were based upon clinically achievable concentrations if the clinical Cmax of the agent was known.
# Compounds. The drugs and investigational agents: BAY 2416964 (NSC825713), GNF351 (NSC835774), CH-223191 (NSC835775), CPI-455 (NSC825282), aza-TdCyd (NSC777586), decitabine (NSC127716), belinostat (NSC758774), entinostat (NSC756642), pevonedistat (NSC761192), tazemetostat (NSC777109), talazoparib (NSC765396), olaparib (NSC753686), selinexor (NSC780203), nedisertib (M3814, NSC802822), bortezomib (NSC756655), venetoclax (NSC766270), doxorubicin (NSC123127), elimusertib (BAY189344, NSC800525), ceralasertib (AZD6738, NSC777638), TAK-243 (NSC785004), alisertib (NSC759677), etoposide (NSC141540), topotecan (NSC609699), eribulin (NSC707389), gemcitabine (NSC613327), carboplatin (NSC241240), cisplatin (NSC119875), and SN-38 (NSC673596) were obtained from the National Cancer Institute (NCI) Developmental Therapeutics Program Chemical Repository (32). The FDA-approved anticancer drug set is available from the Developmental Therapeutics Program at https://dtp.cancer.gov/organization/dscb/obtaining/available plates.htm. […] The stock solutions were prepared in dimethyl sulfoxide (DMSO, Sigma-Aldrich, St. Louis, MO, cat. D2650), except for the platinum compounds which were prepared in saline (Quality Biological, Gaithersburg, MD, cat. 114-055-101), at 800-fold the tested concentration and stored at -70 degrees C prior to their use. All drugs and investigational agents were tested over a range starting from a high concentration at or near the clinical Cmax and decreasing in half-log increments. If the clinical Cmax for an agent had not been determined, the highest concentration tested was 10 microM (Table 1).
# Cell Culture. All cells were maintained in an incubator at 37 degrees C and 5% CO2 with 95% humidity. The PDC lines were cultured according to standard operating procedures established by the NCI PDMR (https://pdmr.cancer.gov). Briefly, all PDCs were thawed and cultured in Matrigel-coated flasks prepared with a working solution of 1X Ham's F-12 nutrient mix, without supplementation (Invitrogen, Waltham, MA, cat. 11765054), 100 U/mL penicillin-streptomycin (Invitrogen, cat. 15140122), and 2.5% Matrigel (Corning Inc., Corning, NY, cat. 354248) for the first three passages. All PDCs were cultured in complete DMEM/F-12 media containing advanced DMEM/F-12 (Invitrogen, cat. 12634028), 4.9% defined fetal bovine serum, heat inactivated (HyClone Laboratories Inc., Logan, UT, cat. SH30070.03HI), 389 ng/mL hydrocortisone (Sigma-Aldrich, cat. H4001), 9.7 ng/mL human EGF recombinant protein (Invitrogen, cat. PHG0313), 23.4 microg/mL adenine (Sigma-Aldrich, cat. A2786), 97.3 U/mL penicillin-streptomycin (Invitrogen, cat. 15140122), 1.9 mM L-glutamine (Invitrogen, cat. 25030081), and 9.7 microM Y-27632 dihydrochloride (Tocris Bioscience, Bristol, United Kingdom, cat. 1254). The PDCs were cultured in complete DMEM/F12 media without 10 microM Y-27632 dihydrochloride for at least two passages prior to the screen. The established cell lines NCI-H1341 and […] were cultured in DMEM/F-12, HEPES (Invitrogen, cat. 11330032), 5% defined fetal bovine serum (HyClone Laboratories Inc., cat. SH30070.03), ITS premix universal culture supplement [insulin (5 microg/mL), transferrin (5 microg/mL), and selenious acid (5 ng/mL)] […]
# 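Also: spheroids exposed to agents for seven days.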
compound,measurement,setting,value
CC(C)CC(NC(=O)C(Cc1ccccc1)NC(=O)c1cnccn1)B(O)O (stereo not given) + CC(CO)NC(=O)c1cc(-c2ccc(Cl)cc2)nn(-c2cnn(C)c2)c1=O,pIC50,second compound 0.1 µM,7.85
same,pIC50,second compound 0.316 µM,7.87
same,pIC50,second compound 1 µM,7.81
same,pIC50,second compound 3.16 µM,7.80
same,pIC50,second compound 10 µM,7.79
same,"viability, T/C","second compound 0.1 µM, first compound 0.000949 µM",108%
same,"viability, T/C","second compound 0.1 µM, first compound 0.003 µM",116%
same,"viability, T/C","second compound 0.1 µM, first compound 0.00949 µM",65.1%
same,"viability, T/C","second compound 0.1 µM, first compound 0.03 µM",20.3%
same,"viability, T/C","second compound 0.1 µM, first compound 0.0949 µM",9.49%
same,"viability, T/C","second compound 0.1 µM, first compound 0.3 µM",3.53%
same,"viability, T/C","second compound 0.316 µM, first compound 0.000949 µM",111%
same,"viability, T/C","second compound 0.316 µM, first compound 0.003 µM",121%
same,"viability, T/C","second compound 0.316 µM, first compound 0.00949 µM",64.6%
same,"viability, T/C","second compound 0.316 µM, first compound 0.03 µM",17.8%
same,"viability, T/C","second compound 0.316 µM, first compound 0.0949 µM",11.5%
same,"viability, T/C","second compound 0.316 µM, first compound 0.3 µM",2.06%
same,"viability, T/C","second compound 1 µM, first compound 0.000949 µM",101%
same,"viability, T/C","second compound 1 µM, first compound 0.003 µM",122%
same,"viability, T/C","second compound 1 µM, first compound 0.00949 µM",73.4%
same,"viability, T/C","second compound 1 µM, first compound 0.03 µM",19.5%
same,"viability, T/C","second compound 1 µM, first compound 0.0949 µM",14.9%
same,"viability, T/C","second compound 1 µM, first compound 0.3 µM",4.87%
same,"viability, T/C","second compound 3.16 µM, first compound 0.000949 µM",121%
same,"viability, T/C","second compound 3.16 µM, first compound 0.003 µM",120%
same,"viability, T/C","second compound 3.16 µM, first compound 0.00949 µM",73.3%
same,"viability, T/C","second compound 3.16 µM, first compound 0.03 µM",20.1%
same,"viability, T/C","second compound 3.16 µM, first compound 0.0949 µM",12.1%
same,"viability, T/C","second compound 3.16 µM, first compound 0.3 µM",4.74%
same,"viability, T/C","second compound 10 µM, first compound 0.000949 µM",99.5%
same,"viability, T/C","second compound 10 µM, first compound 0.003 µM",117%
same,"viability, T/C","second compound 10 µM, first compound 0.00949 µM",74.5%
same,"viability, T/C","second compound 10 µM, first compound 0.03 µM",22.1%
same,"viability, T/C","second compound 10 µM, first compound 0.0949 µM",12.8%
same,"viability, T/C","second compound 10 µM, first compound 0.3 µM",2.47%
Nc1ccccc1NC(=O)c1ccc(CNC(=O)OCc2cccnc2)cc1 + CC(CO)NC(=O)c1cc(-c2ccc(Cl)cc2)nn(-c2cnn(C)c2)c1=O,pIC50,second compound 0.1 µM,5.42
same,pIC50,second compound 0.316 µM,5.45
same,pIC50,second compound 1 µM,5.56
same,pIC50,second compound 3.16 µM,5.46
same,pIC50,second compound 10 µM,5.58
same,"viability, T/C","second compound 0.1 µM, first compound 0.0316 µM",86.6%
same,"viability, T/C","second compound 0.1 µM, first compound 0.1 µM",93%
same,"viability, T/C","second compound 0.1 µM, first compound 0.316 µM",78.1%
same,"viability, T/C","second compound 0.1 µM, first compound 1 µM",65.4%
same,"viability, T/C","second compound 0.1 µM, first compound 3.16 µM",65.2%
same,"viability, T/C","second compound 0.1 µM, first compound 10 µM",13%
same,"viability, T/C","second compound 0.316 µM, first compound 0.0316 µM",87.5%
same,"viability, T/C","second compound 0.316 µM, first compound 0.1 µM",85.2%
same,"viability, T/C","second compound 0.316 µM, first compound 0.316 µM",83.7%
same,"viability, T/C","second compound 0.316 µM, first compound 1 µM",68.7%
same,"viability, T/C","second compound 0.316 µM, first compound 3.16 µM",55.5%
same,"viability, T/C","second compound 0.316 µM, first compound 10 µM",15.6%
same,"viability, T/C","second compound 1 µM, first compound 0.0316 µM",88%
same,"viability, T/C","second compound 1 µM, first compound 0.1 µM",94.3%
same,"viability, T/C","second compound 1 µM, first compound 0.316 µM",76.1%
same,"viability, T/C","second compound 1 µM, first compound 1 µM",65.5%
same,"viability, T/C","second compound 1 µM, first compound 3.16 µM",50.7%
same,"viability, T/C","second compound 1 µM, first compound 10 µM",14.2%
same,"viability, T/C","second compound 3.16 µM, first compound 0.0316 µM",93.3%
same,"viability, T/C","second compound 3.16 µM, first compound 0.1 µM",95.6%
same,"viability, T/C","second compound 3.16 µM, first compound 0.316 µM",84.5%
same,"viability, T/C","second compound 3.16 µM, first compound 1 µM",70%
same,"viability, T/C","second compound 3.16 µM, first compound 3.16 µM",57.5%
same,"viability, T/C","second compound 3.16 µM, first compound 10 µM",12.9%
same,"viability, T/C","second compound 10 µM, first compound 0.0316 µM",91%
same,"viability, T/C","second compound 10 µM, first compound 0.1 µM",101%
same,"viability, T/C","second compound 10 µM, first compound 0.316 µM",76.2%
same,"viability, T/C","second compound 10 µM, first compound 1 µM",67.2%
same,"viability, T/C","second compound 10 µM, first compound 3.16 µM",50.3%
same,"viability, T/C","second compound 10 µM, first compound 10 µM",6.65%
